Measurements as given in PMC5670201 (Scientific Reports, 2017).
Ends that are not written are not given here.

Columns and labels:
Human Serum Albumin = Human Serum Albumin (Homo sapiens, UniProt P02768); assay: Biacore SPR, antibody variable domain peptides and antibodies against human serum albumin; assay type: binding; conditions: for Kd: human, Biacore SPR, CM5 amine coupling, peptide over immobilized HSA and vice versa, pM-uM, 1:1 fit, read-out: Kinetic Binding Parameters Against Human Serum Albumin: KD; for binding to human serum albumin: Biacore SPR screen, immobilized HSA and vice versa
Excerpt: The 3D structure of the positive variable region peptides were predicted by PEPFOLD 3.0 to compare to their beta hairpin structure within the full antibody[9]-[11] (Fig. 4d). […] Peptides were run in the pM-uM concentration range. […] (b) Multiple sequence alignment of the variable region peptides in question, performed by Clustal Omega. […] (d) 3D structure prediction of peptides in solution performed by PEP-FOLD 3.0, visualized in Chimera. […] Pembrolizumab included as a negative control.

HSA Peptide 40 = molecular target: T1, HSA Peptide 40 (Homo sapiens, UniProt P02768); assay: biochemical; assay type: binding; conditions: for binding to HSA Peptide 40: Biacore SPR screen, immobilized HSA Peptide 40 and vice versa
T1 construct: HSA 40 (479-496); purchased New England Peptide (Gardner, MA, USA)
Procedure: All peptides were run in the pM-uM concentration ranges. […] Short gaps in binding curves at transition times are from removal of solvent spikes during analysis. Binding kinetics were determined via Biacore Evaluation Software analysis of SPR sensograms. […] Structure, PDB 1BJ1, was visualized using UCSF Chimera.
The 3D structure of the positive variable region peptides were predicted by PEPFOLD 3.0 to compare to their beta hairpin structure within the full antibody[9]–[11] (Fig. 4d).
Peptides were run in the pM-uM concentration range. […] (b) Multiple sequence alignment of the variable region peptides in question, performed by Clustal Omega. […] (d) 3D structure prediction of peptides in solution performed by PEP-FOLD 3.0, visualized in Chimera. […] Pembrolizumab included as a negative control.
Peptides were re-suspended and stored in HBS running buffer at either 5 or 10 mg/ml, with up to 10% DMSO added as needed. All antibodies, peptides, as well as HSA, were immobilized on Biacore (GE Healthcare, Chicago, IL) CM5 chips via amine coupling according to manufacture protocol. Immobilization scouting was performed with pH 4.0–5.5 acetate at micromolar concentration ranges, to determine ideal immobilization conditions. […] All peptides and proteins were screened at multiple concentrations from pico to millimolarity, with an association time of 120 to 180 seconds and a dissociation time from 180 to 1200 seconds. Binding kinetics were determined using Biacore Evaluation Software and a 1:1 fit model.
The mixture was frozen, evaporated, and re-suspended in HPLC grade water with 0.1% trifluoroacetic acid. The digest was applied to a Waters X-Bridge Protein BEH C4 column (Waters, Milford, MA) and eluted off at a flow rate of 1 ml/min and a gradient of 0–60% Acetonitrile with 0.1% trifluroacetic acid over 60 minutes.

DTAVYYCAKYPHYYGSSHWYF [BVP1]
Kd (Human Serum Albumin): 2.37e+06 pM

rituximab: commercial monoclonal antibody, anti-CD20
binding to human serum albumin (Human Serum Albumin): do not bind HSA

HYYGSSHWYFDVWGQ [Bevacizumab Heavy Chain 11]
Kd (HSA Peptide 40): 503 nM
kon (HSA Peptide 40; read-out: Kinetic Binding Parameters against HSA Peptide 40: kon): 357 M⁻¹ s⁻¹

CC(C)[C@H](NC(=O)[C@H](CC(N)=O)NC(=O)[C@H](Cc1ccccc1)NC(=O)[C@H](Cc1ccc(O)cc1)NC(=O)[C@H](Cc1c[nH]c2ccccc12)NC(=O)[C@H](CC(=O)O)NC(=O)CNC(=O)CNC(=O)[C@H](Cc1ccc(O)cc1)NC(=O)[C@H](Cc1ccc(O)cc1)NC(=O)[C@@H](NC(=O)[C@H](CO)NC(=O)[C@H](CCCNC(=N)N)NC(=O)[C@H](C)NC(=O)[C@H](CS)NC(=O)[C@@H](N)Cc1ccc(O)cc1)[C@@H](C)O)C(=O)N[C@@H](Cc1c[nH]c2ccccc12)C(=O)NCC(=O)N[C@@H](C)C(=O)NCC(=O)O [RVP1]
binding to human serum albumin (Human Serum Albumin): bound both
Kd (Human Serum Albumin): 2.48e+06 pM
binding to HSA Peptide 40 (HSA Peptide 40): bound both

RVP2: Rituximab Variable Domain Peptide 2 (101-120)
binding to human serum albumin (Human Serum Albumin): binding neither
binding to HSA Peptide 40 (HSA Peptide 40): binding neither
